Laboratory results published in patent publication US9314509B2, “Pharmaceutical compositions of melanocortin receptor ligands” (Ipsen Pharma S.A.S., priority 2009, dated 2016).
Counter-ions that a name gives are not always drawn. Like-named read-outs stand apart in the source and are kept apart here.

Test: Solubility of pamoate salt, HPLC determination of concentration in supernatant
Assay type: physicochemical
Procedure: The solubility of pamoate salt of Example 1 was determined by mixing the peptide in water or PBS, followed by HPLC determination of the concentration in the supernatant, and the results are shown in Table 4B.

CC(=O)N[C@@H](CCCNC(=N)N)C(=O)N[C@H]1CSSC[C@@H](C(N)=O)NC(=O)[C@H](Cc2c[nH]c3ccccc23)NC(=O)[C@H](CCCNC(=N)N)NC(=O)[C@@H](Cc2ccccc2)NC(=O)[C@H](Cc2c[nH]cn2)NC(=O)[C@@H](C)NC1=O [Pamoate salt of Example 1 with Zn]
solubility (PBS, pH 7.4, read-out: Solubility in PBS, pH 7.4): 120 µg/mL | solubility (Water, pH 7.0, read-out: Solubility in Water, pH 7.0): 50 µg/mL
